Laboratory results from ChEMBL document CHEMBL1131734, “Synthesis of polyamine derivatives for the preparation of affinity chromatography columns for the search of new Trypanosoma cruzi targets” (Bioorg Med Chem Lett, 1999).

What was measured:
Trypanosoma cruzi [1] = assay: Inhibitory activity against Trypanosoma cruzi trypomastigotes; assay type: functional, organism-based
Trypanosoma cruzi [2] = assay: Inhibitory activity against Trypanosoma cruzi trypomastigotes at concentration 12.5 uM; assay type: functional
Trypanothione reductase = Trypanothione reductase (Trypanosoma cruzi, UniProt P28593); assay: Inhibitory activity against trypanothione reductase in Trypanosoma cruzi trypomastigotes; NA is not active
Chain of Trypanothione reductase (P28593 whole entry): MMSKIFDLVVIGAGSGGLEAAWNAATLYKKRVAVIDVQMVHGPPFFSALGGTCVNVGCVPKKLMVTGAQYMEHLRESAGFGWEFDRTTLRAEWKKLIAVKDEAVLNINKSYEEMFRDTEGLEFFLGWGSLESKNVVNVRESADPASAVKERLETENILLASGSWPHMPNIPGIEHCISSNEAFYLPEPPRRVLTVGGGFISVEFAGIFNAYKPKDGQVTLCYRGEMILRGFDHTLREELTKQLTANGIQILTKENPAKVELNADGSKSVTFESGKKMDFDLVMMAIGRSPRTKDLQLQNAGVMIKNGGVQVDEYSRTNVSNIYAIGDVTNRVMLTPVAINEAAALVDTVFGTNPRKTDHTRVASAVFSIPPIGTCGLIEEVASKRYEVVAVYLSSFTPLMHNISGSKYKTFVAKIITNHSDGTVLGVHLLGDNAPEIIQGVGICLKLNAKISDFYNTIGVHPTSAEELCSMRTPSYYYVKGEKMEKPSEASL

| SMILES | IC50 (Trypanosoma cruzi [1]) [µM] | IC50 (Trypanothione reductase) | inhibition at 12.5 µM (Trypanosoma cruzi [2]) [%] |
| --- | --- | --- | --- |
| NCCCCC(N)C(=O)NCC1CCC(CNCCCN2CCN(CCCNCC3CCC(CNC(=O)C(N)CCCCN)CC3)CC2)CC1 (centres undefined) | 5 | Not Active | – |
| NCCCN1CCN(CCCNCC2CCCCC2)CC1 | 5 | Not Active | – |
| NCCCN1CCN(CCCN)CC1 | 5 | Not Active | – |
| O=C1c2ccccc2C(=O)N1CCCN1CCN(CCCNCC2CCCCC2)CC1 | 5 | Not Active | – |

The remaining molecules from weak to strong by IC50 (Trypanosoma cruzi [1]), led by results:

| IC50 (Trypanosoma cruzi [1]) [µM] | IC50 (Trypanothione reductase) | SMILES | inhibition at 12.5 µM (Trypanosoma cruzi [2]) [%] |
| --- | --- | --- | --- |
| 5 | Not Active | C1CCC(CNCCCN2CCN(CCCNCC3CCCCC3)CC2)CC1 | 90 |
| 5 | Not Active | CC(C)(C)OC(=O)NCCCCC(NC(=O)OC(C)(C)C)C(=O)NCC1CCC(CNCCCN2CCN(CCCNCC3CCC(CNC(=O)C(CCCCNC(=O)OC(C)(C)C)NC(=O)OC(C)(C)C)CC3)CC2)CC1 (centres undefined) | – |
| 5 | Not Active | CC(C)(C)OC(=O)NCCCCC(NC(=O)OC(C)(C)C)C(=O)NCC1CCC(CNCCCN2CCN(CCCNCC3CCCCC3)CC2)CC1 (centres undefined) | – |
| 5 | Not Active | NCCCCC(N)C(=O)NCC1CCC(CNCCCN2CCN(CCCNCC3CCCCC3)CC2)CC1 (centres undefined) | – |
| 5 | Not Active | NCCCN1CCN(CCCN2C(=O)c3ccccc3C2=O)CC1 | – |
